Measurements taken from US20020103136A1, “Conjugates useful in the treatment of prostate cancer” (priority 1998, published 2002).
Where two headings read alike, the source gives them in different places. Square brackets hold non-standard residues; d marks the D form. HCAP = (1S,2R)-(+)-2-hydroxy-3-cyclohexylisopropylamine linker; dAc‑VIN = 4-des-acetylvinblastine; Chg = N[C@H](C(=O)O)C1CCCCC1; Abu = CC[C@H](N)C(=O)O; VIN = not defined here; GABA = NCCCC(=O)O

Assays:
[1] = target: T1, enzymatically active free PSA (Homo sapiens, UniProt P07288); experiment: Recognition/cleavage of oligopeptide-vinca drug conjugates by free PSA (HPLC); format: biochemical; details: pH 7.4; for Time to 50% Substrate Cleavage by York PSA: conjugate:PSA molar ratio 100 to 1, acetate salt unless otherwise indicated, n > 1 value is an average
T1 construct: 50% cleavage of the noted oligopeptide-cytotoxic agent conjugates with enzymatically active free PSA; purchased York
T1 sequence (P07288 25-261): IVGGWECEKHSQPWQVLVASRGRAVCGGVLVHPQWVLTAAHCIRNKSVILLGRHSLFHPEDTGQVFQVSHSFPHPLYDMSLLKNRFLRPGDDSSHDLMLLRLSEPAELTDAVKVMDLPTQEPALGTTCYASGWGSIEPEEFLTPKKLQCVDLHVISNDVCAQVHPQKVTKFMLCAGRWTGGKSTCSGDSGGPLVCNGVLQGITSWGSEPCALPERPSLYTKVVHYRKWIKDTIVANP
Experimental: The conjugates prepared as described in Example 3 were individually dissolved in PSA digestion buffer (50 mM tris(hydroxymethyl)-aminomethane pH7.4, 140 mM NaCl) and the solution added to PSA at a molar ration of 100 to 1. Alternatively, the PSA digestion buffer utilized is 50 mM tris(hydroxymethyl)-aminomethane pH7.4, 140 mM NaCl. The reaction is quenched after various reaction times by the addition of trifluoroacetic acid (TFA) to a final 1% (volume/volume). Alternatively the reaction is quenched with 10 mM ZnCl2. The quenched reaction was analyzed by HPLC on a reversed-phase C18 column using an aqueous 0.1% TFA/acetonitrile gradient. […] Unless otherwise indicated, the acetate salt of the conjugate was tested.

[2] = Lability in mouse serum (remark in Table 5); format: in vitro ADME; details: remark in the Table 5 cell
[3] = tested on: LNCap prostate tumor cells; experiment: In vitro cytotoxicity, Alamar Blue assay, LNCaP cell kill in 72 hrs; format: cell-based; details: read-out: LNCaP Cell Kill in 72 HRS EC5O
Experimental: (§1) The cytotoxicities of the vinca alkaloid derivatives, prepared as described in Example 1, and the cleaveable oligopeptide-vinca drug conjugates, prepared as described in Examples 2 and 2A, against a line of cells which is known to be killed by unmodified vinca drug was assessed with an Alamar Blue assay. Specifically, cell cultures of LNCap prostate tumor cells, Colo320DM cells (also designated C320), T24 bladder carcinoma cells or T47D breast carcinoma cells in 96 well plates was diluted with medium containing various concentrations of a given conjugate (final plate well volume of 200 μl). The cells were incubated for 3 days at 37° C., 20 μl of Alamar Blue is added to the assay well. The cells were further incubated and the assay plates were read on a EL-310 ELISA reader at the dual wavelengths of 570 and 600 nm at 4 and 7 hours after addition of Alamar Blue. Relative percentage viability at the various concentration of conjugate tested was then calculated versus control (no cytotoxic agent or conjugate) cultures. Unless otherwise indicated, the TFA salt of the cytotoxic agent and the acetate salt of the conjugate were tested.

[4] = tested on: Colo320DM cells (also designated C320); experiment: In vitro cytotoxicity, Alamar Blue assay, Colo320DM cells; format: cell-based; details: read-out: Cell Kill in 72 HRS EC5O, Colo320DM
Experimental: as §1

[5] = tested on: T24 bladder carcinoma cells; experiment: In vitro cytotoxicity, Alamar Blue assay, T24 cells; format: cell-based; details: read-out: Cell Kill in 72 HRS EC5O, T24
Experimental: as §1

[6] = Table 5, 3 days, acetate salt of conjugate unless otherwise indicated
[7] = Table 5, value in parentheses, acetate salt unless otherwise indicated
[8] = Table 3, 3 days, TFA salt of cytotoxic agent unless otherwise indicated
[9] = Table 3, value in parentheses, TFA salt unless otherwise indicated

| Compound | Time to 50% Substrate Cleavage by York PSA [1] | EC50 [3, 6] [µM] | EC50 [4, 7] [µM] | other results |
| --- | --- | --- | --- | --- |
| CC[C@]1(O)CC2CN(CCc3c([nH]c4ccccc34)[C@@](C(=O)OC)(c3cc4c(cc3OC)N(C)C3C45CCN4CC=C[C@](CC)(C45)[C@@H](O)[C@]3(O)C(=O)N[C@H](COC(=O)[C@H](CO)NC(=O)[C@H](CCC(N)=O)NC(=O)[C@@H](NC(=O)[C@H](CO)NC(=O)[C@H](CO)NC(=O)[C@@H]3C[C@@H](O)CN3C(C)=O)C3CCCCC3)Cc3ccccc3)C2)C1 (stereo partly drawn) | 25 min | – | – | Stability in mouse serum [2]: labile |
| 4-des-Acetylvinblastine-23-(N-Acetyl-4-trans-L-Hyp-Ser-Ser-Chg-Gln-Ser-HCAP) Amide Acetate Salt | 15 min | 3.4 | 4.6 | – |
| 4-des-Acetylvinblastine-23-(N-Acetyl-Ser-Chg-Gln-Ser-Ser-Pro-HCAP) Amide Acetate Salt (SXQSSX; non-natural residues; cyclised or stapled) [Ac-SChgQ-SSP-(HCAP)-VIN] | 8 min | 7.8 | 15.7 | – |
| 4-des-Acetylvinblastine-23-(N-hydroxyacetyl-Abu-Ser-Ser-Chg-Gln-Ser-Pro-HCAP) amide (XSSXQSP; non-natural residues; cyclised or stapled) | 11 min | 2 | 12.6 | – |
| CC[C@]1(O)C[C@@H]2CN(CCc3c([nH]c4ccccc34)[C@@](C(=O)OC)(c3cc4c(cc3OC)N(C)[C@H]3[C@@](O)(C(=O)N[C@H](CO)Cc5ccccc5)[C@H](O)[C@]5(CC)C=CCN6CC[C@]43[C@@H]65)C2)C1 [L-phenylalaninol-(dAc)-VIN] | – | – | – | EC50 [3, 8]: 0.5 µM; EC50 [4, 9]: 3.5 µM |
| CC[C@]1(O)C[C@@H]2CN(CCc3c([nH]c4ccccc34)[C@@](C(=O)OC)(c3cc4c(cc3OC)N(C)[C@H]3[C@@](O)(C(=O)NC(CO)c5ccccc5)[C@H](O)[C@]5(CC)C=CCN6CC[C@]43[C@@H]65)C2)C1 (stereo partly drawn) [Phenylglyinol-(dAc)-VIN] | – | – | – | EC50 [3, 8]: 0.7 µM; EC50 [4, 9]: 4.8 µM |
| CC[C@]1(O)C[C@@H]2CN(CCc3c([nH]c4ccccc34)[C@@](C(=O)OC)(c3cc4c(cc3OC)N(C)[C@H]3[C@@](O)(C(=O)NC(CO)CO)[C@H](O)[C@]5(CC)C=CCN6CC[C@]43[C@@H]65)C2)C1 [Serinol-(dAc)-VIN] | – | – | – | EC50 [3, 8]: 0.8 µM; EC50 [4, 9]: 8.3 µM |
| CC[C@]1(O)C[C@@H]2CN(CCc3c([nH]c4ccccc34)[C@@](C(=O)OC)(c3cc4c(cc3OC)N(C)[C@H]3[C@@](O)(C(=O)OC)[C@H](OC(C)=O)[C@]5(CC)C=CCN6CC[C@]43[C@@H]65)C2)C1 [VINBLASTINE, vinblastine] | – | – | – | EC50 ([3]; Homo sapiens, 72 h, Table 3, 3 days, TFA salt of cytotoxic agent unless otherwise indicated): 0.5 µM; EC50 ([5]; Homo sapiens, T-24, 72 h, Table 3, value in parentheses): < 0.08 µM; EC50 ([5]; Table 5, value in parentheses): < 0.08 µM |
| CCC1(O)CC2CN(CCc3c([nH]c4ccccc34)C(C(=O)OC)(c3cc4c(cc3OC)N(C)C3C(O)(C(=O)NC(CO)Cc5c[nH]c6ccccc56)C(O)C5(CC)C=CCN6CCC43C65)C2)C1 (stereo not drawn) [tryptophanol-(dAc)-VIN] | – | – | – | EC50 [3, 8]: 0.6 µM; EC50 [4, 9]: 2.9 µM |
| Ac-4-trans-L-Hyp-SSChgQ-SS-(HCAP)-(dAc)-VIN (XSSXQSS; non-natural residues; cyclised or stapled) | 17 min | 2 | 5 | – |
| Ac-4-trans-L-HypSSChgQS-cyclohexylalaninol-(dAc)-VIN (XSSXQSX; non-natural residues; cyclised or stapled) | 10 min | 0.3 | 2.6 | – |
| Ac-4-trans-L-HypSSChgQS-cyclopropylalaninol-(dAc)-VIN | 45 min | 1.5 | 7.5 | – |
| Ac-4-trans-L-HypSSChgQSP(HCAP)-VIN (XSSXQSX; non-natural residues; cyclised or stapled) | 8 min | 5.5 | 15.6 | – |
| Ac-AbuSChgQ-SP-(HCAP)-(dAc)-VIN | 17 (n = 2) Min | 4.1 | 15.7 | – |
| Ac-AbuSSChgQ-S-(HCAP)-VIN (Ac-[Abu]SS[Chg]QS-{HCAP-VIN}; reading uncertain) | – | 6.1 | 7.8 | Substrate cleavage by York PSA at 1 HOUR ([1]; 1 hour, conjugate:PSA 100 to 1): 28% |
| Ac-AbuSSChgQ-SP-(HCAP)-(dAc)-VIN (XSSXQSP; non-natural residues; cyclised or stapled) | 18 min | 2 | 15.7 | – |
| Ac-SChgQ-SP-(HCAP)-(dAc)-VIN (Ac-S[Chg]QSP-{HCAP-dAc‑VIN}) | 13 min | 7.8 | 15.7 | – |
| Ac-SChgQ-SS(4-trans-L-Hyp)-(HCAP)-dAc-VIN (XXQSSX; non-natural residues; cyclised or stapled) | 7 min | 5.9 | 10.4 | – |
| Ac-SChgQS-Abu-(HCAP)-VIN (Ac-S[Chg]QS[Abu]-{HCAP-VIN}; reading uncertain) | 60 min | 0.8 | 2 | – |
| Ac-SChgQSS(HCAP)-dAc-VIN (Ac-S[Chg]QSS-{HCAP-dAc‑VIN}) | 12 min | 1.4 | 1.4 | – |
| Ac-SChgQSS(PIP)-(HCAP)-dAc-VIN (XXQSSX; non-natural residues; cyclised or stapled) | 22 min | – | – | – |
| Ac-SChgQSS-Sar-(HCAP)-dAc-VIN (XXQSSX; not fully specified; N-methyl; non-natural residues; cyclised or stapled) | 13 min | – | – | – |
| Ac-SChgQSS-gammaAbu-(HCAP)-dAc-VIN (Ac-S[Chg]QSS[GABA]-{HCAP-dAc‑VIN}; not fully specified) | 12 min | 2.3 | 4.3 | – |
| Ac-SSChgQ-SP-(HCAP)-(dAc)-VIN (Ac-SS[Chg]QSP-{HCAP-dAc‑VIN}; not fully specified) | 30 min | 10.2 | 29.5 | – |
| Ac-SSChgQ-SSP-(HCAP)-dAc-VIN (XSXQSSX; not fully specified; non-natural residues; cyclised or stapled) | 8 min | 2.6 | 6.3 | – |
